≈ marks a conversion by molar mass, not a printed value.
Legend:
Mus musculus = conditions: acute; oral; mortality
Tagia sp. = conditions: acute; duration: 14 days; mortality
Cyprinus carpio = conditions: acute; duration: 96 hours; mortality
Neomysis kadiakensis = conditions: chronic/long-term; duration: 28 days; reproduction
Anas platyrhynchos = conditions: oral, mortality
Apis mellifera = conditions: acute; duration: 24 hours; oral; unspecified; mortality
Colinus virginianus = conditions: acute, oral, mortality
Daphnia magna = conditions: chronic/long-term; duration: 21 days; mortality
Pimephales promelas = conditions: chronic/long-term; duration: 32 days; growth
Typhlodromus pyri = assay: LR50; higher = less toxic; conditions: acute; duration: 48 hours; mortality
Aphidius rhopalosiphi = assay: LR50; higher = less toxic; conditions: acute; duration: 48 hours; mortality

With CC(Oc1ccc(Oc2ccc(C(F)(F)F)cn2)cc1)C(=O)O (centres undefined) [Fluazifop] the NOAEL (Rattus norvegicus; chronic, duration: 2 years) was 1 mg/kg-day.
For CCCCOC(=O)[C@@H](C)Oc1ccc(Oc2ccc(C(F)(F)F)cn2)cc1 [Fluazifop-P-butyl], the LD50 (Mus musculus) was > 2000 mg/kg-day, the LC50 (Tagia sp.) was > 1000 mg/kg and the NOAEL (Rattus norvegicus; chronic, duration: 2 years) was 1 mg/kg-day. It also gave an NOAEL (Rattus norvegicus; developmental, development) of 2 mg/kg-day, an NOAEL (Rattus norvegicus; reproduction developmental, reproduction) of 6.72 mg/kg-day and an NOAEL (Rattus norvegicus; subchronic, duration: 90 days, oral) of 0.9 mg/kg-day. For the same compound, the LC50 (Cyprinus carpio) was 1.31 µg/mL (≈ 3.42 µM), the NOEC (Neomysis kadiakensis) was 0.0477 mg/L and the LD50 (Anas platyrhynchos; acute, unspecified) was > 3960 mg/kg-day. For the same compound, the LC50 (Anas platyrhynchos; short-term, feed) was > 942 mg/kg-day, the LD50 (Apis mellifera) was > 200 µg/piece and the LC50 (Colinus virginianus; diet) was > 1070 mg/kg-day. The LD50 (Colinus virginianus) was > 2000 mg/kg-day, the NOEC (Daphnia magna) was 0.25 mg/L and the NOEC (Pimephales promelas) was 0.077 mg/L. The LR50 (Typhlodromus pyri) was 5.6 g/ha and the LR50 (Aphidius rhopalosiphi) was 177 g/ha.
O=c1ccc(C(F)(F)F)c[nH]1 [5-(Trifluoromethyl)pyridin-2(1H)-one] was tested, and the NOAEL (Rattus norvegicus; developmental, development) was 60 mg/kg-day.

Reference: EPA's ToxValDB 9.5 (doi:10.2903/j.efsa.2012.2945)
